The Kinase Knowledgebase extract (Sharma et al. 2016)

These molecules were tested against PIK3CA (human) (UniProt P42336) (assay: Assessment of PI3KCA Kinase Activity).
PIK3CA (human), sequence (P42336 whole entry, looked up): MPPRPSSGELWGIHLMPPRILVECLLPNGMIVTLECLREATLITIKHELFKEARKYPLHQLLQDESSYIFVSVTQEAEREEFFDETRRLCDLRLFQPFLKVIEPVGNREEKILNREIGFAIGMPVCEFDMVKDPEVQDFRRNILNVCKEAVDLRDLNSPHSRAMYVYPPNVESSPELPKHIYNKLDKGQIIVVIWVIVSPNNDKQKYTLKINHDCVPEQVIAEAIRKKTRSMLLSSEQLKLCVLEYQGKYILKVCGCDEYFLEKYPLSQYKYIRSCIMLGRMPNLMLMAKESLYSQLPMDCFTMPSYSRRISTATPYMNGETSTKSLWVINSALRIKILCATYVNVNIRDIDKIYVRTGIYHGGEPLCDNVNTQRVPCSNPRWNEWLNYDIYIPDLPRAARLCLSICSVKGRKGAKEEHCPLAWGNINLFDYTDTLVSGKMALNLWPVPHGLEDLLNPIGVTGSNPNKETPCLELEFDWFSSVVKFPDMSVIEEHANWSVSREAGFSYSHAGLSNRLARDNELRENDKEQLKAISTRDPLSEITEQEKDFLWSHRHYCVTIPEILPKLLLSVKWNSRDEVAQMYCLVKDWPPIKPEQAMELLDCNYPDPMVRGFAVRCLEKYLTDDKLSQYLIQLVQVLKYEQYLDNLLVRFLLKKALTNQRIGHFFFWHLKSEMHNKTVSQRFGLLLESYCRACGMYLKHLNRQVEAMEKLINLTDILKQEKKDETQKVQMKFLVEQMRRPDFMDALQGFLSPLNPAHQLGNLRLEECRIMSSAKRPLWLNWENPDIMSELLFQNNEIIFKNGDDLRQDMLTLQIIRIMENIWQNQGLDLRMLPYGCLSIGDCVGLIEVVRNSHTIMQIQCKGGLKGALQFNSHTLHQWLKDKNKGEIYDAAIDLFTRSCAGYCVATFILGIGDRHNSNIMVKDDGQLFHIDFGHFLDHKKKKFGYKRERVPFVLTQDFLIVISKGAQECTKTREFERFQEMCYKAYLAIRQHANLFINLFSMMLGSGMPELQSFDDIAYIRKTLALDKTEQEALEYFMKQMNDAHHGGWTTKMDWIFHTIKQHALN

| Structure (SMILES) | IC50 |
| --- | --- |
| O=C(CCN1CCOCC1)Nc1cc(-c2nc(-c3ccccc3)c(-c3nnc[nH]3)s2)ccn1 | 100 to 1000 nM |
| COc1cncc(-c2nc(-c3ccnc(NC(C)=O)c3)sc2-c2ncc[nH]2)c1 | 100 to 1000 nM |
| Cc1nn2ccsc2c1-c1nc(-c2ccc(F)c(F)c2)c(-c2nnc[nH]2)s1 | < 100 nM |
| CC(=O)Nc1cc(-c2nc(-c3cccc4cnccc34)c(-c3ncc[nH]3)s2)ccn1 | 100 to 1000 nM |
| Cc1nn2ccccc2c1-c1nc(-c2cccc(OCc3ccccc3)c2)c(-c2nc[nH]n2)s1 | 100 to 1000 nM |
| COc1cccc(F)c1-c1nc(-c2c(C)nn3ccc(OCCN4CCOCC4)cc23)sc1-c1nc[nH]n1 | < 100 nM |
| Cc1nn2ccccc2c1-c1nc(-c2cnn(CCN3CCOCC3)c2)c(-c2nc[nH]n2)s1 | 100 to 1000 nM |
| Cc1nn2ccccc2c1-c1cc(-c2ccccc2)c(-c2nnc[nH]2)s1 | < 100 nM |
| Clc1ccc(-c2cc(-c3ccnc4[nH]ccc34)sc2-c2ncc[nH]2)c(Cl)c1 | < 100 nM |
| CCOc1nc(-c2ccnc(NC(=O)c3cccc(F)c3)c2)sc1-c1nnc[nH]1 | < 100 nM |
| COC(=O)Nc1cc(-c2nc(-c3ccc(Cl)cc3Cl)c(-c3ncc[nH]3)s2)ccn1 | < 100 nM |
| N#Cc1c(-c2ccnc(NCCO)n2)sc(-c2nnc[nH]2)c1-c1ccc(Cl)cc1Cl | < 100 nM |
| N=C(N)Nc1cc(-c2cc(-c3ccc(Cl)cc3Cl)c(-c3ncc[nH]3)s2)ccn1 | 100 to 1000 nM |
| N#Cc1c(-c2ccnc(NC(=O)CN)c2)sc(-c2nnc[nH]2)c1-c1ccc(Cl)cc1Cl | < 100 nM |
| Clc1ccc(-c2cc(-c3ccnc4ccccc34)sc2-c2ncc[nH]2)c(Cl)c1 | 100 to 1000 nM |
| CC(=O)Nc1cc(-c2nc(-c3ccccc3C)c(-c3ncc[nH]3)s2)ccn1 | < 100 nM |
| Cc1nn2ccc(OCCN3CCN(S(C)(=O)=O)CC3)cc2c1-c1nc(-c2ccccc2)c(-c2nc[nH]n2)s1 | < 100 nM |
| CCOc1nc(-c2ccnc(NC(=O)CCc3ccccc3)c2)sc1-c1nnc[nH]1 | < 100 nM |
| COCCCNc1cc(-c2sc(-c3nnc[nH]3)c(-c3ccc(Cl)cc3Cl)c2C#N)ccn1 | 100 to 1000 nM |
| Cc1nn2ccccc2c1-c1nc(-c2ccc(CN)cc2)c(-c2nc[nH]n2)s1 | 100 to 1000 nM |
| Cc1nn2ccc(OCCO)cc2c1-c1nc(-c2ccccc2)c(-c2nnc[nH]2)s1 | < 100 nM |
| Cc1nc2ccc(CN(C)CCN)cn2c1-c1nc(-c2ccccc2)c(-c2nnc[nH]2)s1 | < 100 nM |
| N#Cc1c(-c2ccncc2)sc(-c2nnc[nH]2)c1-c1ccc(Cl)cc1Cl | 100 to 1000 nM |
| Cc1cccc(C)c1-c1nc(-c2c(C)nn3ccccc23)sc1-c1nc[nH]n1 | < 100 nM |

| Structure (SMILES) | IC50 |
| --- | --- |
| Cc1nn2ccccc2c1-c1nc(-c2ccc(N3CCOCC3)nc2)c(-c2nc[nH]n2)s1 | 100 to 1000 nM |
| Cc1nn2ccccc2c1-c1nc(-c2ccoc2)c(-c2nnc[nH]2)s1 | < 100 nM |
| CC(=O)Nc1cc(-c2sc(-c3nccn3Cc3cccnc3)c(-c3ccc(Cl)cc3Cl)c2C#N)ccn1 | 100 to 1000 nM |
| Cc1nn2ccccc2c1-c1nc(Cc2ccccc2)c(-c2nnc[nH]2)s1 | 100 to 1000 nM |
| CNc1cc(-c2sc(-c3ncc[nH]3)c(-c3ccc(Cl)cc3Cl)c2C#N)ccn1 | < 100 nM |
| Cc1nc2ccc(C(O)CO)cn2c1-c1nc(-c2ccccc2)c(-c2nnc[nH]2)s1 (stereo unspecified) | < 100 nM |
| CCOc1nc(-c2ccnc(NC(=O)CC(C)C)c2)sc1-c1nnc[nH]1 | 100 to 1000 nM |
| CCC(=O)Nc1cc(-c2nc(-c3ccc(Cl)cc3Cl)c(-c3ncc[nH]3)s2)ccn1 | < 100 nM |
| N#Cc1c(-c2ccnc(NC(=O)c3ccncc3)c2)sc(-c2nnc[nH]2)c1-c1ccc(Cl)cc1Cl | 100 to 1000 nM |
| Cc1nn2ccsc2c1-c1nc(-c2ccccc2)c(-c2ncc[nH]2)s1 | < 100 nM |
| Cc1nn2ccc(OCCNC(=O)C(C)(C)N)cc2c1-c1nc(-c2ccccc2)c(-c2nc[nH]n2)s1 | < 100 nM |
| Cc1nn2ccccc2c1-c1nc(C(C)(C)C)c(-c2nnc[nH]2)s1 | < 100 nM |
| Cc1nc2ccc(CN3CCNCC3)cn2c1-c1nc(-c2ccccc2)c(-c2nnc[nH]2)s1 | < 100 nM |
| CNc1cc(-c2sc(-c3nnc[nH]3)c(-c3ccc(Cl)cc3Cl)c2C#N)ccn1 | < 100 nM |
| N#Cc1c(-c2ccnc(NC(=O)C3CC3)c2)sc(-c2nnc[nH]2)c1-c1ccc(Cl)cc1Cl | < 100 nM |
| Cc1nn2ccccc2c1-c1nc(-c2cnc3[nH]ccc3c2)c(-c2nc[nH]n2)s1 | < 100 nM |
| Cc1nn2ccsc2c1-c1nc(-c2ccccc2)c(-c2nnc[nH]2)s1 | < 100 nM |
| Cc1nn2ccsc2c1-c1nc(OCc2ccccc2)c(-c2nnc[nH]2)s1 | < 100 nM |
| N#Cc1c(-c2nc(N)ncc2Cl)sc(-c2nnc[nH]2)c1-c1ccc(Cl)cc1Cl | 100 to 1000 nM |
| CNC(=O)Nc1cc(-c2sc(-c3nnc[nH]3)c(-c3ccc(Cl)cc3Cl)c2C#N)ccn1 | < 100 nM |
| Cc1nc2ccc(Br)cn2c1-c1nc(-c2ccccc2)c(-c2nc[nH]n2)s1 | 100 to 1000 nM |
| Cc1nc2ccc(C3CCCCC3)cn2c1-c1nc(-c2ccccc2)c(-c2nc[nH]n2)s1 | 100 to 1000 nM |
| Cc1nn2ccc(OC3CCN(C(=O)CO)CC3)cc2c1-c1nc(-c2ccccc2)c(-c2nnc[nH]2)s1 | < 100 nM |
| Cc1nn2ccc(OCCN3CCC(F)CC3)cc2c1-c1nc(-c2ccccc2)c(-c2nc[nH]n2)s1 | < 100 nM |

| Structure (SMILES) | IC50 |
| --- | --- |
| COc1cccc(F)c1-c1ccc2nc(C)c(-c3nc(-c4ccccc4)c(-c4nc[nH]n4)s3)n2c1 | 100 to 1000 nM |
| Cc1nn2ccccc2c1-c1nc(C2CCOCC2)c(-c2nnc[nH]2)s1 | < 100 nM |
| Cc1nn2ccccc2c1-c1nc(-c2cccc(F)c2F)c(-c2nc[nH]n2)s1 | < 100 nM |
| N#Cc1c(-c2ccnc(N)n2)sc(C(N)=O)c1-c1ccc(Cl)cc1Cl | < 100 nM |
| N#Cc1c(-c2ccnc(NCCCO)n2)sc(-c2nnc[nH]2)c1-c1ccc(Cl)cc1Cl | < 100 nM |
| Cc1nc2ccc(CCN)cn2c1-c1nc(-c2ccccc2)c(-c2nnc[nH]2)s1 | < 100 nM |
| CCNc1nccc(-c2sc(-c3nnc[nH]3)c(-c3ccc(Cl)cc3Cl)c2C#N)n1 | < 100 nM |
| CCOc1nc(-c2ccnc(NC(=O)c3ccc(N(C)C)cc3)c2)sc1-c1nnc[nH]1 | 100 to 1000 nM |
| CC(=O)Nc1cc(-c2nc(-c3cc(Cl)ccc3Cl)c(-c3ncc[nH]3)s2)ccn1 | < 100 nM |
| Cc1nn2ccccc2c1-c1nc(-c2cn(C)nc2C(F)(F)F)c(-c2nc[nH]n2)s1 | < 100 nM |
| Cc1nn2ccc(-c3cnn(C)c3)cc2c1-c1nc(-c2ccccc2)c(-c2nc[nH]n2)s1 | < 100 nM |
| CCOc1nc(-c2ccnc(NC(=O)COC)c2)sc1-c1nnc[nH]1 | 100 to 1000 nM |
| N#Cc1c(-c2ccnc(NC(=O)CO)c2)sc(-c2nnc[nH]2)c1-c1ccc(Cl)cc1Cl | < 100 nM |
| CCOc1nc(-c2ccnc(NC(C)=O)c2)sc1-c1nnc[nH]1 | < 100 nM |
| O=C(CCSc1ccccc1)Nc1cc(-c2nc(-c3ccccc3)c(-c3nnc[nH]3)s2)ccn1 | 100 to 1000 nM |
| CCNC(=O)Nc1cc(-c2nc(OCC)c(-c3nc[nH]n3)s2)ccn1 | 100 to 1000 nM |
| Cc1nn2ccccc2c1-c1nc(-c2cnn(Cc3cccnc3)c2)c(-c2nc[nH]n2)s1 | 100 to 1000 nM |
| Nc1cc(-c2nc(-c3ccc(Cl)cc3Cl)c(-c3ncc[nH]3)s2)ccn1 | < 100 nM |
| CC(=O)Nc1cc(-c2nc(-c3ccc(Cl)cc3Cl)c(-c3nc(C)c(C)[nH]3)s2)ccn1 | 100 to 1000 nM |
| Cc1nn2ccccc2c1-c1nc(-c2ccc(F)cc2)c(-c2nnc[nH]2)s1 | < 100 nM |
| COc1ccc(-c2ccc3nc(C)c(-c4nc(-c5ccccc5)c(-c5nc[nH]n5)s4)n3c2)cc1OC | < 100 nM |
| Cc1nn2ccccc2c1-c1nc(-c2ccc(N3CCNCC3)nc2)c(-c2nc[nH]n2)s1 | 100 to 1000 nM |
| Cc1nc2ccc(-c3cnn(C)c3)cn2c1-c1nc(-c2ccccc2)c(-c2nc[nH]n2)s1 | < 100 nM |
| Cc1nn2ccccc2c1-c1nc(-c2ccccc2C(F)(F)F)c(-c2nnc[nH]2)s1 | < 100 nM |

| Structure (SMILES) | IC50 |
| --- | --- |
| CC(=O)Nc1cc(-c2nc(-c3ccccc3Cl)c(-c3ncc[nH]3)s2)ccn1 | < 100 nM |
| COC(=O)c1cccc(-c2nc(-c3c(C)nn4ccccc34)sc2-c2nc[nH]n2)c1 | 100 to 1000 nM |
| Nc1cc(-c2nc(-c3ccc(Cl)cc3Cl)c(-c3ncc[nH]3)s2)ncn1 | 100 to 1000 nM |
| CC(=O)Nc1cc(-c2nc(-c3cc(C(=O)N4CCCC4)ccc3F)c(-c3ncc[nH]3)s2)ccn1 | 100 to 1000 nM |
| Cc1nn2ccccc2c1-c1nc(-c2cccc3ncccc23)c(-c2nc[nH]n2)s1 | 100 to 1000 nM |
| COc1cccc(F)c1-c1nc(-c2c(C)nn3ccc(OC4CCN(C(C)=O)CC4)cc23)sc1-c1nc[nH]n1 | < 100 nM |
| N#Cc1c(-c2ccnc(NS(=O)(=O)c3ccccc3)c2)sc(-c2nnc[nH]2)c1-c1ccc(Cl)cc1Cl | 100 to 1000 nM |
| Cc1nn2ccc(OCc3ccccc3)cc2c1-c1nc(-c2ccccc2)c(-c2nnc[nH]2)s1 | < 100 nM |
| N#Cc1c(-c2ccnc(NC(=O)CCl)c2)sc(-c2nnc[nH]2)c1-c1ccc(Cl)cc1Cl | < 100 nM |
| Cc1nn2ccccc2c1-c1nc(-c2ccccc2)c(-c2nnc[nH]2)s1 | < 100 nM |
| CNCC(=O)Nc1cc(-c2sc(-c3nnc[nH]3)c(-c3ccc(Cl)cc3Cl)c2C#N)ccn1 | 100 to 1000 nM |
| N#Cc1c(-c2ccnc(NC(=O)C3CCC3)c2)sc(-c2nnc[nH]2)c1-c1ccc(Cl)cc1Cl | 100 to 1000 nM |
| COc1cccc(F)c1-c1nc(-c2c(C)nn3ccccc23)sc1-c1nc[nH]n1 | < 100 nM |
| Clc1ccc(-c2cc(-c3ccnc4[nH]cnc34)sc2-c2ncc[nH]2)c(Cl)c1 | < 100 nM |
| Cc1nn2ccc(O)cc2c1-c1nc(-c2ccccc2)c(-c2nnc[nH]2)s1 | < 100 nM |
| N#Cc1c(-c2ccnc(NC(=O)CCc3ccccc3)c2)sc(-c2nnc[nH]2)c1-c1ccc(Cl)cc1Cl | 100 to 1000 nM |
| CC(=O)Nc1cc(-c2nc(-c3ccc(Cl)cc3Cl)c(-c3ncc[nH]3)s2)ccn1 | < 100 nM |
| CC(=O)Nc1cc(-c2nc(-c3ccc(Cl)cc3)c(-c3ncc[nH]3)s2)ccn1 | 100 to 1000 nM |
| Cc1nn2ccc(OCCN3CCC(F)(F)CC3)cc2c1-c1nc(-c2ccccc2)c(-c2nc[nH]n2)s1 | < 100 nM |
| CCOc1nc(-c2ccnc(NC(=O)c3cc(C)on3)c2)sc1-c1nnc[nH]1 | 100 to 1000 nM |
| COC(=O)Nc1cc(-c2nc(-c3ccc(Cl)cc3Cl)c(-c3nnc(N)[nH]3)s2)ccn1 | < 100 nM |
| CC(=O)Nc1cc(-c2nc(NC(C)=O)c(-c3ncc[nH]3)s2)ccn1 | 100 to 1000 nM |
| CCOc1nc(-c2ccnc(NC(=O)Cc3ccccc3)c2)sc1-c1nnc[nH]1 | 100 to 1000 nM |
| Cc1nn2ccccc2c1-c1nc(-c2ccccc2Cl)c(-c2nnc[nH]2)s1 | < 100 nM |
